Test system: MDA-MB-231 cells
Assay: MTT cell viability assay with/without CAP treatment
Type: cell-based, Human
Conditions: for cell viability (baseline toxicity), agent alone: MDA-MB-231, without CAP treatment, MTT 24 hours
Method: Human breast cancer cell lines T-47D, SK-BR-3, and BT-474, were purchased from ATCC (Manassas, Va., USA). MCF-7, MDA-MB-231, Hs578T, and HCC1806 were generously donated by Professor Kanaan' s laboratory at Howard University. All cell lines except SK-BR-3 were cultured in Roswell Park Memorial Institute (RPMI) 1640 Medium supplemented with 10% fetal bovine serum (Sigma-Aldrich, St. Louis, Mo., USA) and 1% Pen Strep (Thermo Fisher Scientific, Waltham, Mass., USA) in a 37° C. and 5% CO2 humidified incubator (Thermo Fisher Scientific, Waltham, Mass., USA). The exceptions for culture conditions include T-47D, which was additionally supplemented with 0.5 mg/mL insulin. SK-BR-3 was cultured in McCoy's 5A Medium. When cells reached approximately 80% confluence, cells were seeded at a concentration of 10^5 cells/well into 12-well plates (USA Scientific, Ocala, Fla., USA) with a 1 mL media volume per well for cell viability assays. MDA-MB-231 cells were transfected with siRNA and transfection reagent according to the manufacturer's instructions. Transfection of BCL2A1 esiRNA or control esiRNA was done at 13 pmol. Briefly, cells were seeded in a 12-well-plate at a density of 1×10^5 cells/well overnight in (RPMI) 1640 Medium supplemented with 10% fetal bovine serum (Sigma-Aldrich, St. Louis, Mo., USA) and 1% Pen Strep (Thermo Fisher Scientific, Waltham, Mass., USA) in a 37° C. and 5% CO2 humidified incubator. The media was replaced with antibiotics-free medium RPMI 2 minutes before the transfection. esiRNA was mixed with Lipofectamine RNAiMAX transfection reagent in 100 μl optimal medium at the required concentration of 13 pmol/mL and were incubated at room temperature for 30 min to form a complex and the mixture was supplemented to each well with optimal medium. Four hours after the transfection, the transfected cells were CAP treated. After 24 hours after the CAP treatment, cells viability was assessed by using MTT assay. Thiazolyl blue tetrazolium bromide (MTT) assay was performed on the cells 24 hours after plasma treatment following the manufacturer's protocol with all MTT assay reagents purchased from Sigma-Aldrich (St. Louis, Mo., USA). The absorbance of the dissolved compound was measured by BioTek Synergy HTX (Winooski, Vt., USA) microplate reader at 570 nm following standard procedure. All viability assays were repeated 3 times with at least 2 replicates each. Data was plotted by Microsoft Excel 2016 as the mean±standard error of the mean. A student t-test or a one-way analysis of variance (ANOVA) was used to check statistical significance where applicable. The differences were considered statistically significant for * p<0.05. A one-way multivariate analysis of variance (MANOVA) followed by a Post-Hoc test was used to check statistical significance where applicable. […] At 24 hrs after transfection with BCL2A1 esiRNA (13 pmol), as mentioned in methods section survival of treatments was determined by MTT assay. The data is represented by the SEM (n=3). (**** P<0.0001* p<0.05, ** p<0.01, *** p<0.001, Student's t-test) versus control. FIGS. 19A-19B show viability of triple cancer breast cancer cell line MDA-MB-231 with Gambogic acid, an antagonist of antiapoptotic Bc1-2 family (FIG. 19A) or CPI203 (FIG. 19B, a BET bromodomain inhibitor after CAP treatment. Bar graph represents MDA-MB-231 MTT cell viability assay after treatment with Gambogic acid (FIG. 19A) or CPI203 (FIG. 19B) in combination of with/without CAP treatment at 80 p Or 120 p 5 mins at 3 L/min He. The samples were compared to the mock control groups. The data is represented by the SEM (n=3). (* p<0.05, ** p<0.01, *** p<0.001, Student's t-test).

| SMILES | cell viability, CPI203 with CAP treatment (MDA-MB-231, 0.25 uM, p<0.05) | cell viability, CPI203 with CAP treatment (MDA-MB-231, 1uM, p<0.01) | cell viability, CPI203 with CAP treatment (MDA-MB-231, 5uM, p<0.001) | cell viability (baseline toxicity), agent alone | CAP-induced cell death, combination of CAP and agent (breast cancer cells, p<0.05) | cell viability in combination with CAP treatment compared to CAP treatment alone (MDA-MB-231, CAP 80 p or 120 p 5 mins at 3 L/min He, MTT 24 hours after CAP) |
| --- | --- | --- | --- | --- | --- | --- |
| Cc1sc2c(c1C)C(c1ccc(Cl)cc1)=N[C@@H](CC(N)=O)c1nnc(C)n1-2 [CPI203] | significant reduction in cell viability | significant reduction in cell viability | significant reduction in cell viability | without any cytotoxicity by itself | dramatically increased the CAP-induced cell death |  |
| CC(C)=CCC[C@]1(C)C=Cc2c(O)c3c(c(CC=C(C)C)c2O1)O[C@]12C(=C[C@@H]4C[C@H]1C(C)(C)O[C@@]2(C/C=C(/C)C(=O)O)C4=O)C3=O [GA, gambogic acid] |  |  |  | cell viability decreased in all the 5 doses |  | no dose that significantly reduced the viability of cells |

Source: patent US12048704B2, “Method for treatment of cancer with combination of cold atmospheric plasma and a gene inhibitor” (Jerome Canady Research Institute for Advanced Biological …, priority 2019, dated 2024)
